Results as given in patent publication US11097023B1, “Pre-filled syringe containing sugammadex” (Par Pharmaceutical, Inc., priority 2020, dated 2021).

Legend:
[1] = Thermal-forced degradation of sugammadex sodium (Example V); type: physicochemical; details: solution in WFI, 60° C.
Protocol: To confirm that the impurities observed in Example III were at least in part a result of thermal degradation, sugammadex sodium as a solution in WFI was subjected to an elevated temperature of 60° C. for ten days. S-oxide diastereomer-1 impurity, s-oxide diastereomer-2 impurity, impurity at ˜1.12 RRT, mono chloro impurity, unknown impurities, and mono hydroxyl impurity concentrations were measured using HPLC technique as described in Example VII after the first, third, fifth, and tenth day.
(§1) For the following procedure, amber-colored glassware was used for all preparations. In addition, because sugammadex sodium is markedly hygroscopic when exposed to air at room temperature and when exposed to humidity, a relative humidity of less than 40% RH was maintained during weighing.
(§2) First, a buffer solution having a pH of 2.0 was prepared by weighing and transferring about 4.08 g of potassium dihydrogen phosphate (AR grade of equivalent) into 1000 mL water (HPLC Grade or Milli-Q) and mixing. The pH of the buffer solution was adjusted to 2.0±0.05 with concentrated ortho-phosphoric acid (HPLC grade or equivalent) and mixed well.
(§3) A mobile phase A was then prepared by transferring 950 mL of the buffer solution and 50 mL of methanol (HPLC grade or equivalent) into a bottle, mixing, and sonicating to degas. A mobile phase B was also prepared by transferring 300 mL of the buffer solution and 700 mL of acetonitrile (HPLC grade or equivalent) into a bottle, mixing, and sonicating to degas.
(§4) A standard solution (50 ppm) was also prepared by weighing and transferring 27.2 mg of sugammadex sodium standard into a 50 mL amber color volumetric flask. About 30 mL of 100% water (HPLC Grade or Milli-Q) was added, and the mixture was sonicated to dissolve. The solution was made up to the mark with 100% water (HPLC Grade or Milli-Q) and mixed well. Then, 5.0 mL of this solution was transferred to 50 mL amber color volumetric flasks, made up to the mark with 100% water (HPLC Grade or Milli-Q), and mixed well.
(§5) To prepare a sensitivity solution (5 ppm), 5.0 mL of the standard solution was transferred to a 50 mL amber volumetric flask, made-up to the mark with 100% water (HPLC Grade or Milli-Q), and mixed well.
(§6) A placebo solution was also prepared by weighing and transferring 1.0 g of placebo into a 20 mL amber color volumetric flask, diluting to 20 mL with 100% water (HPLC Grade or Milli-Q), and mixing well.
(§7) A sample solution (5000 ppm) was also prepared by weighing and transferring 1.0 g of the sample to be analyzed into a 20 mL amber color volumetric flask, diluting to 20 mL with 100% water (HPLC Grade or Milli-Q), and mixing well.
(§8) When performing the chromatographic procedure, for initial samples, two samples were prepared in duplicate. For stability samples, a single sample was prepared. In addition, any peak due to blank and/or placebo was disregarded, any peak below LOQ level was disregarded, and any peak corresponding to mono chloro impurity was disregarded.
(§9) The percent impurity was then calculated as follows:
(§10) [formula] where: A(Spl)=Peak response of impurity obtained from sample solution A(Std)=Average peak response of sugammadex from the standard solution Wt(Std)=Weight (mg) of sugammadex working standard. Wt(Spl)=Weight (g) of Sample LC=Label Claim (100 mg/ml sugammadex) D=Density of sample (mg/ml) P=Potency of the standard (Anhydrous basis+Solvent free) WC=Water content of sugammadex working standard. 2002.12=Molecular weight of sugammadex 2178.01=Molecular weight of sugammadex sodium
(§11) Total impurities were calculated by adding all known impurities (excluding mono hydroxy impurity) and all unknown impurities.

[2] = Oxidative-forced degradation of sugammadex sodium (Example VI); type: physicochemical
Protocol: To confirm that impurities observed in sugammadex sodium-containing solutions could be at least in part a result of oxidative degradation, sugammadex sodium as a solution in […] was subjected to an atmosphere of either 0.01% H2O2 for one hour or to an atmosphere of 0.002% H2O2 for five hours. S-oxide diastereomer-1 impurity, s-oxide diastereomer-2 impurity, impurity at ˜1.12 RRT, mono chloro impurity, unknown impurities, and mono hydroxyl impurity concentrations were measured using HPLC technique as described in Example VII after the first hour of 0.01% H2O2 exposure and after the first, fourth, and fifth hour of 0.002% H2O2 exposure.
as §1, §2, §3, §4, §5, §6, §7, §8, §9, §10, §11

(Excluding Monohydroxy impurity) ([1]; after fifth day): 0.03 % impurity
Highest Unknown impurity ([1]; after fifth day): 7.18 % impurity
Impurity at ~1.12 RRT ([1]; after fifth day): 0.10 % impurity
Mono chloro impurity ([1]; after fifth day): 0.03 % impurity
Other total impurities ([1]; after fifth day): 0.80 % impurity
S-oxide diastereomer-1 impurity ([1]; after fifth day): 0.16 % impurity
S-oxide diastereomer-2 impurity ([1]; after fifth day): 0.21 % impurity
Total impurities ([1]; after fifth day): 8.48 % impurity
(Excluding Monohydroxy impurity) ([1]; after first day): 0.03 % impurity
Highest Unknown impurity ([1]; after first day): 4.44 % impurity
Impurity at ~1.12 RRT ([1]; after first day): 0.10 % impurity
Mono chloro impurity ([1]; after first day): 0.04 % impurity
Other total impurities ([1]; after first day): 0.71 % impurity
S-oxide diastereomer-1 impurity ([1]; after first day): 0.12 % impurity
S-oxide diastereomer-2 impurity ([1]; after first day): 0.17 % impurity
Total impurities ([1]; after first day): 5.58 % impurity
(Excluding Monohydroxy impurity) ([1]; after tenth day): 0.02 % impurity
Highest Unknown impurity ([1]; after tenth day): 15.04 % impurity
Impurity at ~1.12 RRT ([1]; after tenth day): 0.08 % impurity
Mono chloro impurity ([1]; after tenth day): 0.03 % impurity
Other total impurities ([1]; after tenth day): 0.85 % impurity
S-oxide diastereomer-1 impurity ([1]; after tenth day): 0.48 % impurity
S-oxide diastereomer-2 impurity ([1]; after tenth day): 0.42 % impurity
Total impurities ([1]; after tenth day): 16.91 % impurity
(Excluding Monohydroxy impurity) ([1]; after third day): 0.03 % impurity
Highest Unknown impurity ([1]; after third day): 5.34 % impurity
Impurity at ~1.12 RRT ([1]; after third day): 0.10 % impurity
Mono chloro impurity ([1]; after third day): 0.03 % impurity
Other total impurities ([1]; after third day): 0.79 % impurity
S-oxide diastereomer-1 impurity ([1]; after third day): 0.14 % impurity
S-oxide diastereomer-2 impurity ([1]; after third day): 0.20 % impurity
Total impurities ([1]; after third day): 6.59 % impurity
(Excluding Monohydroxy impurity) ([2]; 0.002% H2O2, after fifth hour): 0.03 % impurity
Highest Unknown impurity ([2]; 0.002% H2O2, after fifth hour): 0.07 % impurity
Impurity at ~1.12 RRT ([2]; 0.002% H2O2, after fifth hour): 0.09 % impurity
Mono chloro impurity ([2]; 0.002% H2O2, after fifth hour): 0.03 % impurity
Other total impurities ([2]; 0.002% H2O2, after fifth hour): 0.82 % impurity
S-oxide diastereomer-1 impurity ([2]; 0.002% H2O2, after fifth hour): 4.11 % impurity
S-oxide diastereomer-2 impurity ([2]; 0.002% H2O2, after fifth hour): 5.02 % impurity
Total impurities ([2]; 0.002% H2O2, after fifth hour): 10.14 % impurity
(Excluding Monohydroxy impurity) ([2]; 0.002% H2O2, after first hour): 0.03 % impurity
Highest Unknown impurity ([2]; 0.002% H2O2, after first hour): 0.07 % impurity
Impurity at ~1.12 RRT ([2]; 0.002% H2O2, after first hour): 0.10 % impurity
Mono chloro impurity ([2]; 0.002% H2O2, after first hour): 0.04 % impurity
Other total impurities ([2]; 0.002% H2O2, after first hour): 0.31 % impurity
S-oxide diastereomer-1 impurity ([2]; 0.002% H2O2, after first hour): 1.20 % impurity
S-oxide diastereomer-2 impurity ([2]; 0.002% H2O2, after first hour): 1.47 % impurity
Total impurities ([2]; 0.002% H2O2, after first hour): 3.20 % impurity
(Excluding Monohydroxy impurity) ([2]; 0.002% H2O2, after fourth hour): 0.02 % impurity
Highest Unknown impurity ([2]; 0.002% H2O2, after fourth hour): 0.07 % impurity
Impurity at ~1.12 RRT ([2]; 0.002% H2O2, after fourth hour): 0.09 % impurity
Mono chloro impurity ([2]; 0.002% H2O2, after fourth hour): 0.03 % impurity
Other total impurities ([2]; 0.002% H2O2, after fourth hour): 0.65 % impurity
S-oxide diastereomer-1 impurity ([2]; 0.002% H2O2, after fourth hour): 3.42 % impurity
S-oxide diastereomer-2 impurity ([2]; 0.002% H2O2, after fourth hour): 4.18 % impurity
Total impurities ([2]; 0.002% H2O2, after fourth hour): 8.45 % impurity
(Excluding Monohydroxy impurity) ([2]; 0.01% H2O2, after first hour): 0.02 % impurity
Highest Unknown impurity ([2]; 0.01% H2O2, after first hour): 3.07 % impurity
Impurity at ~1.12 RRT ([2]; 0.01% H2O2, after first hour): 0.08 % impurity
Mono chloro impurity ([2]; 0.01% H2O2, after first hour): 0.03 % impurity
Other total impurities ([2]; 0.01% H2O2, after first hour): 3.66 % impurity
S-oxide diastereomer-1 impurity ([2]; 0.01% H2O2, after first hour): 10.64 % impurity
S-oxide diastereomer-2 impurity ([2]; 0.01% H2O2, after first hour): 12.89 % impurity
Total impurities ([2]; 0.01% H2O2, after first hour): 30.36 % impurity
Compound: O=C([O-])CCSC[C@H]1O[C@@H]2O[C@H]3[C@H](O)[C@@H](O)[C@@H](O[C@H]4[C@H](O)[C@@H](O)[C@@H](O[C@H]5[C@H](O)[C@@H](O)[C@@H](O[C@H]6[C@H](O)[C@@H](O)[C@@H](O[C@H]7[C@H](O)[C@@H](O)[C@@H](O[C@H]8[C@H](O)[C@@H](O)[C@@H](O[C@H]9[C@H](O)C(O)[C@@H](O[C@H]1[C@H](O)[C@H]2O)O[C@@H]9CSCCC(=O)[O-])O[C@@H]8CSCCC(=O)[O-])O[C@@H]7CSCCC(=O)[O-])O[C@@H]6CSCCC(=O)[O-])O[C@@H]5CSCCC(=O)[O-])O[C@@H]4CSCCC(=O)[O-])O[C@@H]3CSCCC(=O)[O-].[Na+].[Na+].[Na+].[Na+].[Na+].[Na+].[Na+].[Na+] (stereo partly drawn) [sugammadex sodium]
Impurities generated via thermal degradation ([1]; ten days): at least s-oxide diastereomer-1 impurity, s-oxide diastereomer-2 impurity, and unknown impurities are generated via thermal degradation
Impurities generated via oxidation ([2]; 0.01% H2O2 one hour or 0.002% H2O2 five hours): at least s-oxide diastereomer-1 impurity, s-oxide diastereomer-2 impurity, and unknown impurities are generated via oxidation
